Reference: publication PMC7284870, “Antimicrobial Peptides from Rat-Tailed Maggots of the Drone Fly Eristalis tenax Show Potent Activity against Multidrug-Resistant Gram-Negative Bacteria” (Microorganisms, 2020)
Read-outs that look alike come from different tables or passages of the source. No end group written: not given here.

Experiments:
S. aureus ATCC 33592 = format: cell-based, Staphylococcus aureus; details: CAMB, 18 h, 37 °C, n = 4
Description: (§1) The strains that were used in this study (Table 2 and Table S1) were cultivated at 37 °C in cation-adjusted Mueller–Hinton broth (CAMB) in Erlenmeyer flasks, or on the same medium with agar in Petri dishes. Exceptionally, Mycobacterium smegmatis was cultivated at 37 °C in brain heart infusion (BHI) medium that was supplemented with 1% Tween-80 in Erlenmeyer flasks, or on the same medium lacking detergent but with agar in Petri dishes. Strains listed with Robert Koch Institute (RKI) strain numbers are clinical isolates from the RKI strain collection originating from hospitalized patients in Germany. The remaining strains originated from the Sanofi strain collection and they were originally purchased from the American Type Culture Collection or the German Collection of Microorganisms and Cell Cultures. Meropenem/colistin-resistant strains were maintained, as described above, with the appropriate antibiotic added at levels below the minimal inhibitory concentration (MIC).
(§2) The MIC values were determined in 384-well microtiter plates with an assay volume of 20 µL. Immediately before each assay, the cultures of test organisms (bacteria grown for 18 h, Candida albicans and M. smegmatis grown for 48 h) were diluted with the appropriate medium to a density of 1 × 10^6 cells/mL (C. albicans), 1 × 10^5 cells/mL (M. smegmatis) or 5 × 10^5 cells per mL (other species). […] We transferred 2-µL aliquots from this dilution series to new 384-well microtiter plates while using a CyBio-Well 384-channel automated pipettor (Analytic Jena, Jena, Germany) and added 18 µL of the diluted suspension of each test species using a Viafill reagent dispenser (Integra), thus reducing the final peptide concentration 10-fold to the range 1024–0.03125 µg/mL. […] The growth of M. smegmatis was measured using the BacTiter-Glo luminescence test system (Promega, Madison, WI, USA). The growth of the other species was determined by visual inspection of the microtiter plate and turbidimetry based on the optical density at 600 nm (OD600). The MIC was defined as the peptide concentration at which no bacterial growth was observed. We supplemented the test medium with either 150 mM NaCl or 1.25 mM CaCl2 to represent monovalent and divalent cations to simulate physiological conditions.

[1] = system: Micrococus luteus DSM 20030; format: cell-based, Micrococcus luteus; details: CAMB, 18 h, 37 °C, n = 4
Description: as §1
(§3) The MIC values were determined in 384-well microtiter plates with an assay volume of 20 µL. […] The growth of M. smegmatis was measured using the BacTiter-Glo luminescence test system (Promega, Madison, WI, USA). The growth of the other species was determined by visual inspection of the microtiter plate and turbidimetry based on the optical density at 600 nm (OD600). […]

E. coli ATCC 25922 = system: E. coli ATCC 25922
Description: as §1
The MIC values were determined in 384-well microtiter plates with an assay volume of 20 µL. Immediately before each assay, the cultures of test organisms (bacteria grown for 18 h, Candida albicans and M. smegmatis grown for 48 h) were diluted with the appropriate medium to a density of 1 × 10^6 cells/mL (C. albicans), 1 × 10^5 cells/mL (M. smegmatis) or 5 × 10^5 cells per mL (other species). The peptides were dissolved in sterile water at a concentration of 10.24 mg/mL and a 1:2 dilution series was prepared in a 384-well microtiter plate to achieve the concentration range 10,240–0.3125 µg/mL in a volume of 50 µL. We transferred 2-µL aliquots from this dilution series to new 384-well microtiter plates while using a CyBio-Well 384-channel automated pipettor (Analytic Jena, Jena, Germany) and added 18 µL of the diluted suspension of each test species using a Viafill reagent dispenser (Integra), thus reducing the final peptide concentration 10-fold to the range 1024–0.03125 µg/mL. The cells were incubated at 37 °C and 85% relative humidity, shaking at 180 rpm for 48 h (M. smegmatis), 24 h (C. albicans) or 18 h (other species). The growth of M. smegmatis was measured using the BacTiter-Glo luminescence test system (Promega, Madison, WI, USA). The growth of the other species was determined by visual inspection of the microtiter plate and turbidimetry based on the optical density at 600 nm (OD600). […] We supplemented the test medium with either 150 mM NaCl or 1.25 mM CaCl2 to represent monovalent and divalent cations to simulate physiological conditions.

Canida albicans FH2173 = format: cell-based, Candida albicans; details: CAMB, 24 h, 37 °C, n = 4
Description: as §1, §2

[2] = system: Acinetobacter baumannii ATCC 19606; format: cell-based; details: CAMB, 18 h, 37 °C, n = 4
Description: as §1, §2

[3] = system: Enterococcus faecium DSM 17050; format: cell-based; details: CAMB, 18 h, 37 °C, n = 4
Description: as §1, §2

[4] = system: Klebsiella pneumoniae DSM 30104; format: cell-based; details: CAMB, 18 h, 37 °C, n = 4
Description: as §1, §2

[5] = system: Listeria monocytogenes DSM 20600; format: cell-based; details: CAMB, 18 h, 37 °C, n = 4
Description: as §1, §2

[6] = system: Mycobacterium smegmatis ATCC 607; format: cell-based; details: BHI, 48 h, 37 °C, BacTiter-Glo, n = 4
Description: as §1, §2

[7] = system: Proteus mirabilis DSM 4479; format: cell-based; details: CAMB, 18 h, 37 °C, n = 4
Description: as §1, §2

[8] = system: Pseudomonas aeruginosa ATCC 27853; format: cell-based; details: CAMB, 18 h, 37 °C, n = 4
Description: as §1, §2

[9] = system: Staphylococcus aureus ATCC 25923; format: cell-based; details: CAMB, 18 h, 37 °C, n = 4
Description: as §1, §2

[10] = system: Staphylococcus epidermidis ATCC 35984; format: cell-based; details: CAMB, 18 h, 37 °C, n = 4
Description: as §1, §2

reference strains = experiment: MIC, several reference strains; format: cell-based; details: reference strains of Table 2
Description: as §1, §3

Question: Which results are given for “AACSLGSLLNVGCNSCACAAHCLATRGKNGACNSQRRCVCNK (disulfide (positions not given here)) [EtDef1]”?
Answer: MIC (S. aureus ATCC 33592): >128 µg/mL; MIC [1]: >128 µg/mL; MIC (E. coli ATCC 25922; CAMB + A000160918 [4 µg/mL]): >256 µg/mL; MIC (E. coli ATCC 25922; CAMB + A000161246 [4 µg/mL]): >256 µg/mL; MIC (E. coli ATCC 25922; CAMB + A000173031A [4 µg/mL]): >256 µg/mL; MIC (E. coli ATCC 25922; CAMB + A000173033A [4 µg/mL]): >256 µg/mL; MIC (E. coli ATCC 25922; CAMB + A000173039A [0.25 µg/mL]): >256 µg/mL; MIC (E. coli ATCC 25922; CAMB + A000173380A [4 µg/mL]): >256 µg/mL; MIC (E. coli ATCC 25922; CAMB + A000498432A [4 µg/mL]): >256 µg/mL; MIC (E. coli ATCC 25922; CAMB + A000499933A [0.0625 µg/mL]): >256 µg/mL; MIC (E. coli ATCC 25922; CAMB + A000500059A [0.0625 µg/mL]): >256 µg/mL; MIC (E. coli ATCC 25922; CAMB + A000500146A [0.0625 µg/mL]): 128 µg/mL; MIC (E. coli ATCC 25922; CAMB + A000501181A [4 µg/mL]): >256 µg/mL; MIC (E. coli ATCC 25922; CAMB + Colistin E1 [0.016 µg/mL]): 128 µg/mL; MIC (E. coli ATCC 25922; CAMB + Colistin E2 [0.016 µg/mL]): 4 µg/mL; MIC (E. coli ATCC 25922; CAMB + PMB [0.016 µg/mL]): 1 µg/mL; MIC (E. coli ATCC 25922; CAMB + PMBN [4 µg/mL]): >256 µg/mL; MIC (E. coli ATCC 25922; CAMB, 18 h, 37 °C, n = 4): >128 µg/mL; MIC (E. coli ATCC 25922; Table 6, CAMB): >256 µg/mL; MIC (Canida albicans FH2173): >128 µg/mL; MIC [2]: >128 µg/mL; MIC [3]: >128 µg/mL; MIC [4]: >128 µg/mL; MIC [5]: >128 µg/mL; MIC [6]: >128 µg/mL; MIC [7]: >128 µg/mL; MIC [8]: >128 µg/mL; MIC [9]: >128 µg/mL; MIC [10]: >128 µg/mL; activity against the test strains (reference strains): inactive
